Assays:
Ipomoea purpurea [1] = assay: Pre-emergence herbicidal effect; assay type: in vivo; conditions: scored visually after 3 weeks
Procedure, shortened: (§1)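 Seeds in sandy loam were covered with soil and treated pre-emergence with WP or EC formulations applied as aqueous spray with 0.2% wetting agent. Percent damage was scored visually after 3 weeks relative to untreated controls.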

Abutilon theophrasti [2] = assay: Pre-emergence herbicidal effect; assay type: in vivo; conditions: scored visually after 3 weeks
Procedure, shortened: as §1

Veronica persica [3] = assay: Pre-emergence herbicidal effect; assay type: in vivo; conditions: scored visually after 3 weeks
Procedure, shortened: as §1

Setaria viridis [4] = assay: Pre-emergence herbicidal effect; assay type: in vivo; conditions: scored visually after 3 weeks
Procedure, shortened: as §1

Amaranthus retroflexus [5] = assay: Pre-emergence herbicidal effect; assay type: in vivo; conditions: scored visually after 3 weeks
Procedure, shortened: as §1

Stellaria media [6] = assay: Pre-emergence herbicidal effect; assay type: in vivo; conditions: scored visually after 3 weeks
Procedure, shortened: as §1

Avena fatua = assay: Pre-emergence herbicidal effect; assay type: in vivo; conditions: scored visually after 3 weeks
Procedure, shortened: as §1

Matricaria inodora [7] = assay: Pre-emergence herbicidal effect; assay type: in vivo; conditions: scored visually after 3 weeks
Procedure, shortened: as §1

Polygonum convolvulus [8] = assay: Pre-emergence herbicidal effect; assay type: in vivo; conditions: scored visually after 3 weeks
Procedure, shortened: as §1

Alopecurus myosuroides [9] = assay: Pre-emergence herbicidal effect; assay type: in vivo; conditions: scored visually after 3 weeks
Procedure, shortened: as §1

Cyperus esculentus = assay: Pre-emergence herbicidal effect; assay type: in vivo; conditions: scored visually after 3 weeks
Procedure, shortened: as §1

Echinochloa crus-galli [10] = assay: Pre-emergence herbicidal effect; assay type: in vivo; conditions: scored visually after 3 weeks
Procedure, shortened: as §1

Viola tricolor [11] = assay: Post-emergence herbicidal effect; assay type: in vivo; conditions: assessed visually after about 3 weeks vs untreated controls
Procedure, shortened: (§2)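 Visual % damage vs untreated plants, ~3 wk after spraying (100% = dead, 0% = as control). Post-emergence foliar spray at one-leaf stage; WP/EC in water, 600–800 L/ha + 0.2% wetting agent; sandy loam, greenhouse.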

Veronica persica [12] = assay: Post-emergence herbicidal effect; assay type: in vivo; conditions: assessed visually after about 3 weeks vs untreated controls
Procedure, shortened: as §2

Setaria viridis [13] = assay: Post-emergence herbicidal effect; assay type: in vivo; conditions: assessed visually after about 3 weeks vs untreated controls
Procedure, shortened: as §2

Amaranthus retroflexus [14] = assay: Post-emergence herbicidal effect; assay type: in vivo; conditions: assessed visually after about 3 weeks vs untreated controls
Procedure, shortened: as §2

Stellaria media [15] = assay: Post-emergence herbicidal effect; assay type: in vivo; conditions: assessed visually after about 3 weeks vs untreated controls
Procedure, shortened: as §2

Matricaria inodora [16] = assay: Post-emergence herbicidal effect; assay type: in vivo; conditions: assessed visually after about 3 weeks vs untreated controls
Procedure, shortened: as §2

Echinochloa crus-galli [17] = assay: Post-emergence herbicidal effect; assay type: in vivo; conditions: 320 g/ha, assessed visually after about 3 weeks vs untreated controls
Procedure, shortened: as §2

Viola tricolor [18] = assay: Pre-emergence herbicidal effect; assay type: in vivo; conditions: scored visually after 3 weeks
Procedure, shortened: as §1

Ipomoea purpurea [19] = assay: Post-emergence herbicidal effect; assay type: in vivo; conditions: assessed visually after about 3 weeks vs untreated controls
Procedure, shortened: as §2

Abutilon theophrasti [20] = assay: Post-emergence herbicidal effect; assay type: in vivo; conditions: assessed visually after about 3 weeks vs untreated controls
Procedure, shortened: as §2

Polygonum convolvulus [21] = assay: Post-emergence herbicidal effect; assay type: in vivo; conditions: 320 g/ha, assessed visually after about 3 weeks vs untreated controls
Procedure, shortened: as §2

Alopecurus myosuroides [22] = assay: Post-emergence herbicidal effect; assay type: in vivo; conditions: 320 g/ha, assessed visually after about 3 weeks vs untreated controls
Procedure, shortened: as §2

logP (HCOOH) = assay type: physicochemical; conditions: HCOOH
Description: Table 2 (physicochemical characterization of selected synthesis examples)

Lolium multiflorum = assay: Pre-emergence herbicidal effect; assay type: in vivo; conditions: Dosage 320 g/ha, scored visually after 3 weeks
Procedure, shortened: as §1

Row | Structure (SMILES) | PHBPU pre-emergence efficacy (herbicidal activity) (Ipomoea purpurea [1]; Dosage 320 g/ha) [%] | ABUTH pre-emergence efficacy (herbicidal activity) (Abutilon theophrasti [2]; Dosage 320 g/ha) [%] | SETVI pre-emergence efficacy (herbicidal activity) (Setaria viridis [4]; Dosage 80 g/ha) [%] | SETVI pre-emergence efficacy (herbicidal activity) (Setaria viridis [4]; Dosage 320 g/ha) [%] | AMARE pre-emergence efficacy (herbicidal activity) (Amaranthus retroflexus [5]; Dosage 80 g/ha) [%] | AMARE pre-emergence efficacy (herbicidal activity) (Amaranthus retroflexus [5]; Dosage 320 g/ha) [%] | AVEFA pre-emergence efficacy (herbicidal activity) (Avena fatua; Dosage 320 g/ha) [%] | MATIN pre-emergence efficacy (herbicidal activity) (Matricaria inodora [7]; Dosage 80 g/ha) [%] | MATIN pre-emergence efficacy (herbicidal activity) (Matricaria inodora [7]; Dosage 320 g/ha) [%] | POLCO pre-emergence efficacy (herbicidal activity) (Polygonum convolvulus [8]; Dosage 80 g/ha) [%] | POLCO pre-emergence efficacy (herbicidal activity) (Polygonum convolvulus [8]; Dosage 320 g/ha) [%] | ALOMY pre-emergence efficacy (herbicidal activity) (Alopecurus myosuroides [9]; Dosage 320 g/ha) [%] | CYPES pre-emergence efficacy (herbicidal activity) (Cyperus esculentus; Dosage 320 g/ha) [%] | ECHCG pre-emergence efficacy (herbicidal activity) (Echinochloa crus-galli [10]; Dosage 80 g/ha) [%] | ECHCG pre-emergence efficacy (herbicidal activity) (Echinochloa crus-galli [10]; Dosage 320 g/ha) [%] | post-emergence efficacy VIOTR (Viola tricolor [11]; 80 g/ha) [%] | post-emergence efficacy VIOTR (Viola tricolor [11]; 320 g/ha) [%] | post-emergence efficacy SETVI (Setaria viridis [13]; 320 g/ha) [%] | post-emergence efficacy AMARE (Amaranthus retroflexus [14]; 80 g/ha) [%] | post-emergence efficacy AMARE (Amaranthus retroflexus [14]; 320 g/ha) [%] | other results
1 | Cc1cc2c(s1)CCCC2Nc1ncc(C#N)c(N)n1 (racemic) [compound 52] | 100 | 100 | 80 | 100 | 100 | 100 | 90 | 100 | 100 | 100 | 100 | 80 | 100 | 80 | 90 | 90 | 90 | 80 | 100 | 100 | ABUTH pre-emergence efficacy (herbicidal activity) (Abutilon theophrasti [2]; Dosage 80 g/ha): 90%; VERPE pre-emergence efficacy (herbicidal activity) (Veronica persica [3]; Dosage 80 g/ha): 100%; VERPE pre-emergence efficacy (herbicidal activity) (Veronica persica [3]; Dosage 320 g/ha): 100%; STEME pre-emergence efficacy (herbicidal activity) (Stellaria media [6]; Dosage 80 g/ha): 100%; STEME pre-emergence efficacy (herbicidal activity) (Stellaria media [6]; Dosage 320 g/ha): 100%; AVEFA pre-emergence efficacy (herbicidal activity) (Avena fatua; Dosage 80 g/ha): 90%; ALOMY pre-emergence efficacy (herbicidal activity) (Alopecurus myosuroides [9]; Dosage 80 g/ha): 70%; CYPES pre-emergence efficacy (herbicidal activity) (Cyperus esculentus; Dosage 80 g/ha): 100%; post-emergence efficacy VERPE (Veronica persica [12]; 80 g/ha): 90%; post-emergence efficacy VERPE (Veronica persica [12]; 320 g/ha): 90%; post-emergence efficacy SETVI (Setaria viridis [13]; 80 g/ha): 60%; post-emergence efficacy STEME (Stellaria media [15]; 80 g/ha): 100%; post-emergence efficacy STEME (Stellaria media [15]; 320 g/ha): 100%; post-emergence efficacy MATIN (Matricaria inodora [16]; 80 g/ha): 60%; post-emergence efficacy MATIN (Matricaria inodora [16]; 320 g/ha): 60%; post-emergence efficacy ECHCG (Echinochloa crus-galli [17]): 100%
2 | Cc1cc2c(s1)CCCC2Nc1nc(N)c(Br)c(C(F)F)n1 (racemic) [compound 284] | 50 | 80 | 100 | 100 | 100 | 100 | 70 | 100 | 100 | 90 | 100 | 80 | 100 | 80 | 100 | 60 | 90 | 100 | 80 | 80 | VIOTR pre-emergence efficacy (herbicidal activity) (Viola tricolor [18]; Dosage 80 g/ha): 100%; VIOTR pre-emergence efficacy (herbicidal activity) (Viola tricolor [18]; Dosage 320 g/ha): 100%; PHBPU pre-emergence efficacy (herbicidal activity) (Ipomoea purpurea [1]; Dosage 80 g/ha): 50%; ABUTH pre-emergence efficacy (herbicidal activity) (Abutilon theophrasti [2]; Dosage 80 g/ha): 20%; AVEFA pre-emergence efficacy (herbicidal activity) (Avena fatua; Dosage 80 g/ha): 50%; ALOMY pre-emergence efficacy (herbicidal activity) (Alopecurus myosuroides [9]; Dosage 80 g/ha): 70%; CYPES pre-emergence efficacy (herbicidal activity) (Cyperus esculentus; Dosage 80 g/ha): 90%; post-emergence efficacy PHBPU (Ipomoea purpurea [19]; 80 g/ha): 90%; post-emergence efficacy PHBPU (Ipomoea purpurea [19]; 320 g/ha): 100%; post-emergence efficacy ABUTH (Abutilon theophrasti [20]; 80 g/ha): 90%; post-emergence efficacy ABUTH (Abutilon theophrasti [20]; 320 g/ha): 90%; post-emergence efficacy SETVI (Setaria viridis [13]; 80 g/ha): 90%; post-emergence efficacy STEME (Stellaria media [15]; 80 g/ha): 100%; post-emergence efficacy STEME (Stellaria media [15]; 320 g/ha): 100%; post-emergence efficacy MATIN (Matricaria inodora [16]; 320 g/ha): 80%; post-emergence efficacy POLCO (Polygonum convolvulus [21]): 100%; post-emergence efficacy ALOMY (Alopecurus myosuroides [22]): 100%; post-emergence efficacy ECHCG (Echinochloa crus-galli [17]): 80%
3 | CS(=O)(=O)c1cnc(N[C@@H]2CCCc3sccc32)nc1N [compound 24] | 100 | 100 | 90 | 100 | 100 | 100 | 90 | 100 | 100 | 100 | 100 | 100 | 60 | 100 | 100 | 90 | 100 | 80 | 90 | 90 | logP (HCOOH) (logP (HCOOH)): solid; logP (HCOOH): 1.82; 1H NMR (CDCl3, 400 MHZ, δ in ppm): 1.85 (m, 3H, 3H; VIOTR pre-emergence efficacy (herbicidal activity) (Viola tricolor [18]; Dosage 80 g/ha): 100%; VIOTR pre-emergence efficacy (herbicidal activity) (Viola tricolor [18]; Dosage 320 g/ha): 100%; LOLMU pre-emergence efficacy (herbicidal activity) (Lolium multiflorum): 100%; VERPE pre-emergence efficacy (herbicidal activity) (Veronica persica [3]; Dosage 80 g/ha): 100%; VERPE pre-emergence efficacy (herbicidal activity) (Veronica persica [3]; Dosage 320 g/ha): 100%; STEME pre-emergence efficacy (herbicidal activity) (Stellaria media [6]; Dosage 80 g/ha): 100%; STEME pre-emergence efficacy (herbicidal activity) (Stellaria media [6]; Dosage 320 g/ha): 100%; post-emergence efficacy PHBPU (Ipomoea purpurea [19]; 80 g/ha): 80%; post-emergence efficacy PHBPU (Ipomoea purpurea [19]; 320 g/ha): 100%; post-emergence efficacy ABUTH (Abutilon theophrasti [20]; 80 g/ha): 100%; post-emergence efficacy ABUTH (Abutilon theophrasti [20]; 320 g/ha): 100%; post-emergence efficacy VERPE (Veronica persica [12]; 80 g/ha): 90%; post-emergence efficacy VERPE (Veronica persica [12]; 320 g/ha): 100%; post-emergence efficacy STEME (Stellaria media [15]; 80 g/ha): 80%; post-emergence efficacy STEME (Stellaria media [15]; 320 g/ha): 100%; post-emergence efficacy MATIN (Matricaria inodora [16]; 80 g/ha): 80%; post-emergence efficacy MATIN (Matricaria inodora [16]; 320 g/ha): 100%; post-emergence efficacy POLCO (Polygonum convolvulus [21]): 80%

From patent publication US10251395B2, “Substituted furano-/thienocycloalkylamino-2-pyrimidine derivatives and use thereof for controlling undesired plant growth” (Bayer CropScience Aktiengesellschaft, priority 2015, dated 2019)
